The term IC50 denotes the concentration at which inhibition is half-maximal.

This note sets out measurements from patent US9969742B2, “Imidazotriazinone compounds” (Ironwood Pharmaceuticals, Inc., priority 2012, dated 2018).

Each structure is given as a SMILES string. Like-named read-outs stand apart in the source and are kept apart here.

The target of this test is T1, PDE9A2 (Homo sapiens, UniProt O76083).
T1 construct: purchased Reaction Biology Corporation, Malvern, Pa
Kind of test: Phosphodiesterase enzyme screening assay, PDE9A2. Format: biochemical. The following applies: read-out: Band (PDE9A2 IC50). From the text: Compounds of the invention were screened against PDE1A, PDE1B, PDE2A, PDE3A, PDE3B, PDE4A1A, PDE4B1, PDE4D3, PDE5A1, PDE6C, PDE7A, PDE8A1, PDE9A2, PDE10A2 AND PDE11A isoforms of the phosphodiesterase enzyme to determine activity and overall selectivity through comparative analysis. […] Where 8-methoxy-IBMX and Zaprinast were used as reference inhibitors.
The phosphodiesterase enzyme isoforms were obtained from a commercial retailer (Reaction Biology Corporation, Malvern, Pa.) for use in the instant screening assay.
The analysis was completed using the Caliper LabChip 3000 and a 12-sipper LabChip. LabChip assays are separations-based, meaning that the product and substrate are electrophoretically separated, thereby minimizing interferences and yielding the highest data quality available on any screening platform. […] High Z′ values, few false positives, few false negatives and analytical quality reproducibility are the reasons cited for the increasing reliance on the LabChip assays.
The off-chip incubation mobility-shift phosphodiesterase assay uses a microfluidic chip to measure the conversion of a fluorescent cyclic AMP substrate to a 5′-AMP product, or a cyclic GMP substrate to a 5′-GMP product. The reaction mixture, from a microtiter plate well, is introduced through a capillary sipper onto the chip, where the fluorescent substrate and product are separated by electrophoresis and detected via laser-induced fluorescence. […] The precision of microfluidics allows researchers to detect subtle interactions between drug candidates and therapeutic targets.
Reactions were carried out in 100 mM HEPES (pH 7.5), 5 mM MgCl2, 1 mM DTT, 0.003% Brij, 4.0 μM cGMP substrate. The reaction was started by addition of cGMP or cAMP and incubated for 1 hour at R.T. The reaction was terminated by the addition of stop buffer containing 100 mM HEPES (pH 7.5), 15 mM EDTA, 0.015% Brij-35, 5% DMSO. Cyclic AMP/GMP substrate and 5′-AMP/5′-GMP product were separated by charge using electrophoretic mobility shift. Product formed was compared to control wells to determine inhibition or enhancement of enzyme activity.
Data points were averages of quadruplicate wells and error bars represented the SEM for each point.

Where [1] appears, read: Table 1, 10 concentrations, 4.0 μM cGMP substrate, 1 hour at R.T.
The mark [2] stands for this setting: Table 2, 10 concentrations, 4.0 μM cGMP substrate, 1 hour at R.T.
Where [3] appears, read: 4.0 μM cGMP substrate, 1 hour at R.T.

T1 sequence (O76083 1-533 isoform O76083-2): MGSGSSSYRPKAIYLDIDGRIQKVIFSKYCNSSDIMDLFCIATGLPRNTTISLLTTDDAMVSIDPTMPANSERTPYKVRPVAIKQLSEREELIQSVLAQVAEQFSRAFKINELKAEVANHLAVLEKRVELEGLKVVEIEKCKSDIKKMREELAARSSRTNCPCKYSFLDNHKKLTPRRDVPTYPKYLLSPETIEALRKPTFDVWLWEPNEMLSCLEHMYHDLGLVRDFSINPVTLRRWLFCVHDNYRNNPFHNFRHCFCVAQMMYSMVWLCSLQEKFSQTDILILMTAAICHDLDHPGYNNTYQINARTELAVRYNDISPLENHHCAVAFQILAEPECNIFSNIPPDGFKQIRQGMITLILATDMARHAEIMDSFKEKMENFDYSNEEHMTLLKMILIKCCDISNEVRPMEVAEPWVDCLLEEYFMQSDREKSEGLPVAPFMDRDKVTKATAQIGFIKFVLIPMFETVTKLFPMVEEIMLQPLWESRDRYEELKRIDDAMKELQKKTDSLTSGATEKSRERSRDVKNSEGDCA

As for `Cc1ccc(Cl)cc1-c1ncc2c(=O)[nH]c([C@@H]3CNC[C@H]3C)nn12` (relative stereo) [(−)-7-(5-chloro-2-methylphenyl)-2-((3,4-trans)-4-methylpyrrolidin-3-yl)imidazo[5,1-f][1,2,4]triazin-4(3H)-one], the IC50 under setting [1] lay within 1000 to 10000 nM.

In the case of `CC1CN(Cc2ncccn2)CC1c1nn2c(-c3cccc(F)c3)ncc2c(=O)[nH]1` (single isomer, unassigned; (+)) [(+)-7-(3-fluorophenyl)-2-((3,4-trans)-4-methyl-1-(pyrimidin-2-ylmethyl)pyrrolidin-3-yl)imidazo[5,1-f][1,2,4]triazin-4(3H)-one], the concentration for half-maximal inhibition (IC50) was < 1000 nM.

As to `CC1CN(C(=O)c2ccccn2)CC1c1nn2c(C3CCOCC3)ncc2c(=O)[nH]1` (single isomer, unassigned; (-)) [(−)-2-((3,4-trans)-4-methyl-1-picolinoylpyrrolidin-3-yl)-7-(tetrahydro-2H-pyran-4-yl)imidazo[5,1-f][1,2,4]triazin-4(3H)-one], the half-maximal inhibitory concentration (IC50) under setting [1] was < 1000 nM.

For the compound `CSc1cnc(CN2CC(C)C(c3nn4c(C5CCOCC5)ncc4c(=O)[nH]3)C2)nc1` (single isomer, unassigned; (+)) [(+)-2-((3,4-trans)-4-methyl-1-((5-(methylthio)pyrimidin-2-yl)methyl)pyrrolidin-3-yl)-7-(tetrahydro-2H-pyran-4-yl)imidazo[5,1-f][1,2,4]triazin-4(3H)-one], the concentration for half-maximal inhibition (IC50) under setting [2] was < 1000 nM.

For `CC1CN(Cc2nc3ccccn3n2)CC1c1nn2c(CC(F)(F)F)ncc2c(=O)[nH]1` (stereo not drawn) [2-((3,4-trans)-1-([1,2,4]triazolo[1,5-a]pyridin-2-ylmethyl)-4-methylpyrrolidin-3-yl)-7-(2,2,2-trifluoroethyl)imidazo[5,1-f][1,2,4]triazin-4(3H)-one], the IC50 under setting [3] is < 1000 nM.

Consider `CC1CN(C(=O)c2cncnc2)CC1c1nn2c(C3CCOCC3)ncc2c(=O)[nH]1` (single isomer, unassigned; (-)) [(−)-2-((3,4-trans)-4-methyl-1-(pyrimidine-5-carbonyl)pyrrolidin-3-yl)-7-(tetrahydro-2H-pyran-4-yl)imidazo[5,1-f][1,2,4]triazin-4(3H)-one], for which, under setting [1], the IC50 is < 1000 nM.

Take `CC1CN(Cc2ncccn2)CC1c1nn2c(C3CCOC3)ncc2c(=O)[nH]1` (single isomer, unassigned; (+)) [(+)-2-((3,4-trans)-4-methyl-1-(pyrimidin-2-ylmethyl)pyrrolidin-3-yl)-7-(tetrahydrofuran-3-yl)imidazo[5,1-f][1,2,4]triazin-4(3H)-one]: the half-inhibitory concentration (IC50) under setting [1] is < 1000 nM.

Turning to `CC1CN(Cc2ccccc2)CC1c1nn2c(CC(F)(F)F)ncc2c(=O)[nH]1` (single isomer, unassigned; (+)) [(+)-2-((3,4-trans)-1-benzyl-4-methylpyrrolidin-3-yl)-7-(2,2,2-trifluoroethyl) imidazo [5,1-f] [1,2,4] triazin-4 (3H)-one], the half-maximal inhibitory concentration (IC50) under setting [3] was < 1000 nM.

Regarding `Cc1ccc(F)cc1-c1ncc2c(=O)[nH]c(C3CN(Cc4ncccn4)CC3C)nn12` (single isomer, unassigned; (+)) [(+)-7-(5-fluoro-2-methylphenyl)-2-((3,4-trans)-4-methyl-1-(pyrimidin-2-ylmethyl)pyrrolidin-3-yl)imidazo[1,5-f][1,2,4]triazin-4(3H)-one], under setting [1], the IC50 is < 1000 nM.

As to `CCC(CC)c1ncc2c(=O)[nH]c(C3CN(Cc4ncccn4)CC3C)nn12` (single isomer, unassigned; (+)) [(+)-2-((3,4-trans)-4-methyl-1-(pyrimidin-2-ylmethyl)pyrrolidin-3-yl)-7-(pentan-3-yl)imidazo[5,1-f][1,2,4]triazin-4(3H)-one], the IC50 is < 1000 nM.

In the case of `CC1CN(Cc2ccccn2)CC1c1nn2c(C3CCOCC3)ncc2c(=O)[nH]1` (single isomer, unassigned; (-)) [(−)-2-((3,4-trans)-4-methyl-1-(pyridin-2-ylmethyl)pyrrolidin-3-yl)-7-(tetrahydro-2H-pyran-4-yl)imidazo[5,1-f][1,2,4]triazin-4(3H)-one], under setting [1], the half-maximal inhibitory concentration (IC50) is < 1000 nM.

Turning to `CC1CN(Cc2ncccn2)CC1c1nn2c(-c3ccccc3)ncc2c(=O)[nH]1` (single isomer, unassigned; (+)) [(+)-2-((3,4-trans)-4-methyl-1-(pyrimidin-2-ylmethyl)pyrrolidin-3-yl)-7-phenylimidazo[5,1-f][1,2,4]triazin-4(3H)-one], the half-inhibitory concentration (IC50) was < 1000 nM.

For `CC1CN(Cc2ccccc2)CC1c1nn2c(C3CCC(F)(F)CC3)ncc2c(=O)[nH]1` (single isomer, unassigned; (-)) [(−)-2-((3,4-trans)-1-benzyl-4-methylpyrrolidin-3-yl)-7-(4,4-difluorocyclohexyl)imidazo[5,1-f][1,2,4]triazin-4(3H)-one], the concentration for half-maximal inhibition (IC50) under setting [1] is < 1000 nM.

Consider `CC1CN(C(=O)c2ccccc2)CC1c1nn2c(C3CCOCC3)ncc2c(=O)[nH]1` (single isomer, unassigned; (-)) [(−)-2-((3,4-trans)-1-benzoyl-4-methylpyrrolidin-3-yl)-7-(tetrahydro-2H-pyran-4-yl)imidazo[5,1-f][1,2,4]triazin-4(3H)-one], for which the IC50 under setting [1] was < 1000 nM.

As to `CC1CN(Cc2ncc(C(F)(F)F)cn2)CC1c1nn2c(C3CCOCC3)ncc2c(=O)[nH]1` (single isomer, unassigned; (+)) [(+)-2-((3,4-trans)-4-methyl-1-((5-(trifluoromethyl)pyrimidin-2-yl)methyl)pyrrolidin-3-yl)-7-(tetrahydro-2H-pyran-4-yl)imidazo[5,1-f][1,2,4]triazin-4(3H)-one], the concentration for half-maximal inhibition (IC50) under setting [2] was < 1000 nM.

Take `CC1CN(Cc2ccc3nccn3n2)CC1c1nn2c(C3CCOCC3)ncc2c(=O)[nH]1` (single isomer, unassigned; (-)) [(−)-2-((3,4-trans)-1-(imidazo[1,2-b]pyridazin-6-ylmethyl)-4-methylpyrrolidin-3-yl)-7-(tetrahydro-2H-pyran-4-yl)imidazo[5,1-f][1,2,4]triazin-4(3H)-one]: the IC50 under setting [1] is < 1000 nM.

On to `CC1CN(Cc2ccccn2)CC1c1nn2c(-c3ccc(F)cc3)ncc2c(=O)[nH]1` (single isomer, unassigned; (+)) [(+)-7-(4-fluorophenyl)-2-((3,4-trans)-4-methyl-1-(pyridin-2-ylmethyl)pyrrolidin-3-yl)imidazo[5,1-f][1,2,4]triazin-4(3H)-one], for which the concentration for half-maximal inhibition (IC50) lay within 1000 to 10000 nM.

With `CC1CN(C(=O)c2cnccn2)CC1c1nn2c(C3CCOCC3)ncc2c(=O)[nH]1` (single isomer, unassigned; (-)) [(−)-2-((3,4-trans)-4-methyl-1-(pyrazine-2-carbonyl)pyrrolidin-3-yl)-7-(tetrahydro-2H-pyran-4-yl)imidazo[5,1-f][1,2,4]triazin-4(3H)-one], under setting [1], the 50% inhibitory concentration (IC50) is < 1000 nM.

Consider `CC1CN(Cc2ccccc2)CC1c1nn2c(C3CCN(C)CC3)ncc2c(=O)[nH]1` (single isomer, unassigned) [2-((3,4-trans)-1-benzyl-4-methylpyrrolidin-3-yl)-7-(1-methylpiperidin-4-yl)imidazo[5,1-f][1,2,4]triazin-4(3H)-one], for which the IC50 under setting [1] was 1000 to 10000 nM.

In the case of `CC1CN(Cc2ccc(C#N)cc2)CC1c1nn2c(C3CCOCC3)ncc2c(=O)[nH]1` (single isomer, unassigned; (+)) [(+)-4-(((3,4-trans)-3-methyl-4-(4-oxo-7-(tetrahydro-2H-pyran-4-yl)-3,4-dihydroimidazo[5,1-f][1,2,4]triazin-2-yl)pyrrolidin-1-yl)methyl)benzonitrile], the IC50 under setting [1] was < 1000 nM.

On to `CC1CN(CC2CCNCC2)CC1c1nn2c(C3CCOCC3)ncc2c(=O)[nH]1` (single isomer, unassigned; (+)), for which the IC50 is < 1000 nM.

With `CC1CN(Cc2ccc(F)cc2)CC1c1nn2c(-c3ccccc3C(F)(F)F)ncc2c(=O)[nH]1` (single isomer, unassigned; (+)), the half-maximal inhibitory concentration (IC50) under setting [3] is < 1000 nM.

For `CC1CN(C(=O)c2ccccc2C#N)CC1c1nn2c(C3CCOCC3)ncc2c(=O)[nH]1` (single isomer, unassigned; (+)) [(+)-2-((3,4-trans)-3-methyl-4-(4-oxo-7-(tetrahydro-2H-pyran-4-yl)-3,4-dihydroimidazo[5,1-f][1,2,4]triazin-2-yl)pyrrolidine-1-carbonyl)benzonitrile], the IC50 under setting [1] is 1000 to 10000 nM.

In the case of `Cc1ccncc1-c1ncc2c(=O)[nH]c(C3CN(Cc4ccc(F)cc4)CC3C)nn12` (single isomer, unassigned; (+)) [(+)-2-((3,4-trans)-1-(4-fluorobenzyl)-4-methylpyrrolidin-3-yl)-7-(4-methylpyridin-3-yl)imidazo[5,1-f][1,2,4]triazin-4(3H)-one], the IC50 was < 1000 nM.
